Measurements reported in patent US20230148184A1, “COMPOUNDS AND METHODS FOR MODULATING SPLICING” (REMIX THERAPEUTICS INC., priority 2020, published 2023).

Columns and labels:
Format in all cases: cell-based
HTT CJ mRNA = assay: Gene panel canonical junction qPCR assay, HTT; details: decrease in CJ mRNA levels, RT-qPCR
Method: (§1) Compounds described herein were used to modulate RNA transcript abundance in cells. The expression of a target mRNA was measured by detecting the formation of an exon-exon junction in the canonical transcript (CJ). A compound mediated exon-inclusion event was detected by observing an increase in formation of a new junction with an alternative exon (AJ). Real-time qPCR assays were used to detect these splicing switches and interrogate the potency of various compounds towards different target genes. A high-throughput real time quantitative PCR (RT-qPCR) assay was developed to measure these two isoforms of the mRNA (CJ and AJ) for an exemplary gene, HTT, together with a control housekeeping gene, GAPDH or GUSB or PPIA, used for normalization. Briefly, the A673 or K562 cell line was treated with various compounds described herein (e.g., compounds of Formula (I)). After treatment, the levels of the HTT mRNA targets were determined from each sample of cell lysate by cDNA synthesis followed by qPCR.
(§2) The A673 cell line was cultured in DMEM with 10% FBS. Cells were diluted with full growth media and plated in a 96-well plate (15,000 cells in 100 ul media per well). The plate was incubated at 37° C. with 5% CO2 for 24 hours to allow cells to adhere. An 11-point 3-fold serial dilution of the compounds was made in DMSO then diluted in media in an intermediate plate. Compounds were transferred from the intermediate plate to the cell plate with the top dose at a final concentration of 10 uM in the well. Final DMSO concentration was kept at or below 0.25%. The cell plate was returned to the incubator at 37° C. with 5% CO2 for an additional 24 hours.
(§3) The K562 cell line was cultured in IMDM with 10% FBS. For K562, cells were diluted with full growth media and plated in either a 96-well plate (50,000 cells in 50 uL media per well) or a 384-well plate (8,000-40,000 cells in 45 uL media per well). An 11-point 3-fold serial dilution of the compounds were made in DMSO then diluted in media in an intermediate plate. Compound was transferred from the intermediate plate to the cell plate with the top dose at a final concentration of 10 uM in the well. Final DMSO concentration was kept at or below 0.25%. Final volume was 100 uL for 96-well plate and 50 uL for 384-well plate. The cell plate was then placed in an incubator at 37° C. with 5% CO2 for 24 hours.
(§4) The cells were then gently washed with 50 uL-100 uL cold PBS before proceeding to addition of lysis buffer. 30 uL-50 uL of room temperature lysis buffer with DNAse I (and optionally RNAsin) was added to each well. Cells were shaken/mixed thoroughly at room temperature for 5-10 minutes for lysis to take place and then 3 uL-5 uL of room temperature stop solution was added and wells were shaken/mixed again. After 2-5 minutes, the cell lysate plate was transferred to ice for RT-qPCR reaction setup. The lysates could also be frozen at −80° C. for later use.
(§5) In some cases, a direct lysis buffer was used. An appropriate volume of 3× lysis buffer (10 mM Tris, 150 mM NaCl, 1.5%-2.5% Igepal and 0.1-1 U/uL RNAsin, pH 7.4) was directly added to either K562 or A673 cells in media and mixed by pipetting 3 times. The plates were then incubated at room temperature with shaking/rocking for 20-50 minutes to allow for lysis to take place. After this time, the cell lysate plate was transferred to ice to set up for the RT-qPCR reactions. The lysates could also be frozen at −80° C. for later use.
(§6) To set up 10 uL RT-qPCR reactions, cell lysates were transferred to 384-well qPCR plates containing the master mix according to the table below. The plates were sealed, gently vortexed, and spun down before the run. The volumes were adjusted accordingly in some instances where the reaction was carried in 20 uL. The table below summarizes the components of the RT-qPCR reactions:
(§7) The RT-qPCR reaction was performed using a QuantStudio (ThermoFisher) under the following fast cycling conditions. […]

SMN2 CJ mRNA = assay: Gene panel canonical junction qPCR assay, SMN2; details: decrease in CJ mRNA levels, RT-qPCR
Method: as §1, §2, §3, §4, §5, §6, §7

HTT mRNA = assay: RT-qPCR splicing assay for HTT mRNA isoforms (canonical junction CJ and alternative junction AJ); details: A673 or K562 cell line, 24 hours compound treatment; for IC50: decrease in CJ mRNA; for AC50: increase in AJ mRNA
Method: as §1
Cells-to-CT 1-step kit: ThermoFisher A25602, Cells-to-CT lysis reagent: ThermoFisher 4391851C, TaqMan™ Fast Virus 1-Step Master Mix: ThermoFisher 4444436 GAPDH: VIC-PL, ThermoFisher 4326317E (Assay: Hs99999905_m1)—used for K562/suspension cell lines GUSB: VIC-PL, ThermoFisher 4326320E (Assay: Hs99999908_m1)—used for K562/suspension cell lines PPIA: VIC-PL, ThermoFisher 4326316E (Assay: Hs99999904_m1)—used for A673/adherent cell lines
as §2, §3, §4
as §5, with “use. […]” for “use.”

Target C CJ mRNA = assay: Gene panel canonical junction qPCR assay, Target C; details: decrease in CJ mRNA levels, RT-qPCR
Method: as §1, §2, §3, §4, §5, §6, §7

| SMILES | IC50 (HTT CJ mRNA) | IC50 (SMN2 CJ mRNA) | IC50 (HTT mRNA) | AC50 (HTT mRNA) | IC50 (Target C CJ mRNA) |
| --- | --- | --- | --- | --- | --- |
| CN(c1ccc2c(n1)OCCc1cc(-c3cn[nH]c3)ccc1-2)C1CC(C)(C)NC(C)(C)C1 [Compound 145] | > 10000 nM | 1 to 10 µM | > 10000 nM | > 10000 nM | 1000 to 10000 nM |
| c1cnn(-c2ccc3c(c2)COc2nc(N4CCCC5(CNC5)C4)ccc2-3)c1 [Compound 181] | > 10000 nM | > 10 µM | > 10000 nM | > 10000 nM | > 10000 nM |
| c1cnn(-c2ccc3c(c2)OCCc2nc(N[C@@H]4C[C@H]5CC[C@@H](C4)N5)ccc2-3)c1 [Compound 136, N-[(1R,3S,5S)-8-azabicyclo[3.2.1]octan-3-yl]-13-(pyrazol-1-yl)-10-oxa-6-azatricyclo[9.4.0.0^[2,7]]pentadeca-1(11),2(7),3,5,12,14-hexaen-5-amine] | > 10000 nM | > 10 µM | > 10000 nM | > 10000 nM | > 10000 nM |
| CN(c1ccc2c(n1)OCc1cc(-n3nccn3)ccc1-2)[C@@H]1C[C@H]2CC[C@@H](C1)N2 [Compound 151] | < 100 nM | < 0.1 µM | < 100 nM | < 100 nM | 100 to 1000 nM |
| Cc1ncc(-c2ccc3c(c2)COc2nc(N(C)[C@@H]4C[C@H]5CC[C@@H](C4)N5)ccc2-3)o1 [Compound 155] | < 100 nM | < 0.1 µM | < 100 nM | < 100 nM | 100 to 1000 nM |
| CN(c1ccc2c(n1)OCc1cc(-n3cc(N)cn3)ccc1-2)[C@@H]1C[C@H]2CC[C@@H](C1)N2 [Compound 172] | 100 to 1000 nM | < 0.1 µM | 100 to 1000 nM | 100 to 1000 nM | 100 to 1000 nM |
| CN(c1cnc2c(n1)OCc1cc(-c3cn[nH]c3)ccc1-2)[C@@H]1C[C@H]2CC[C@@H](C1)N2 [Compound 144, (exo)-N-methyl-N-[8-(1H-pyrazol-4-yl)-6H-isochromeno[3,4-b]pyrazin-3-yl]-8-azabicyclo[3.2.1]octan-3-amine] | 100 to 1000 nM | > 10 µM | 100 to 1000 nM | 100 to 1000 nM | 100 to 1000 nM |
| CN(c1ccc2c(n1)OCc1cc(-c3cn[nH]c3)ccc1-2)C1CC(C)(C)NC(C)(C)C1 [Compound 147, N,2,2,6,6-pentamethyl-N-[8-(1H-pyrazol-4-yl)-6H-isochromeno[3,4-b]pyridin-3-yl]piperidin-4-amine] | 100 to 1000 nM | > 10 µM | 100 to 1000 nM | 100 to 1000 nM | 100 to 1000 nM |
| CN(c1ccc2c(n1)OCc1cc(-c3cnc(=O)[nH]c3)ccc1-2)[C@@H]1C[C@H]2CC[C@@H](C1)N2 [Compound 161] | > 10000 nM | > 10 µM | > 10000 nM | > 10000 nM | > 10000 nM |
| CN(c1ccc2c(n1)OCc1cc(-c3cn[nH]c3)ccc1-2)[C@@H]1C[C@H]2CC[C@@H](C1)N2 [Compound 108, (1R,5S)—N-Methyl-N-[8-(1H-pyrazol-4-yl)-6H-isochromeno[3,4-b]pyridin-3-yl]-8-azabicyclo [3.2.1] octan-3-amine] | < 100 nM | < 0.1 µM | < 100 nM | < 100 nM | < 100 nM |
| c1cnn(-c2ccc3c(c2)COc2nc(N4CCCC5(CCNC5)C4)ccc2-3)c1 (stereo not shown) [Compound 192] | > 10000 nM | > 10 µM | > 10000 nM | > 10000 nM | > 10000 nM |
